Patent US9347934B2, “Assays for identifying compounds that modulate bitter taste” (CHROMOCELL CORPORATION, priority 2011, dated 2016)

What was measured:
Format in all cases: cell-based
[1] = target: T1, TAS2R38 (Homo sapiens, UniProt P59533); test: Calcium fluorescence functional assay, TAS2R38 cell line; conditions: 20 mM tastant; cell line expressing human TAS2R38 and mouse Gα15
T1 construct: expressed in transfected cells
T1 sequence (P59533 1-333): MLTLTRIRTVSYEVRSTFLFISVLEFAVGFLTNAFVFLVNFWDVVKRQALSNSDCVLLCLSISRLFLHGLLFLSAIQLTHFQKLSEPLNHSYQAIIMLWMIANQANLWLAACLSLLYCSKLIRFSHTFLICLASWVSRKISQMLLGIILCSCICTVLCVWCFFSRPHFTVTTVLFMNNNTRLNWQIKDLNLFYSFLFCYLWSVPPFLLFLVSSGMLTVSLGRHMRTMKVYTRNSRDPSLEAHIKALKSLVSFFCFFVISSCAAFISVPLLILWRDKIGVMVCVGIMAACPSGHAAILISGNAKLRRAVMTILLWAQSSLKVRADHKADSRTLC
Method: (§1) Accordingly, each cell line of the panel expressed a human bitter taste receptor and mouse Gα15 signaling protein.
(§2) Probenecid was not included in the load solution.
(§3) After dye loading, cell plates were placed in a fluorescent plate reader (e.g., FDSS6000 (Hamamatsu, Japan)) and receptor stimulation was measured by adding 50 ul of 3× concentrated ligand/agonist stock. Fluorescence was monitored continuously for 10 s before agonist addition and for 100-250 s after stimulation with agonist.
(§4) Receptor Activation is defined as follows: % Activation=[((Maximum signal fluorescence−Minimum signal fluorescence)−(Maximum control fluorescence−Minimum control fluorescence))/(Maximum buffer fluorescence−Minimum buffer fluorescence)]*100 Functional Response=[(Maximum signal fluorescence−Minimum signal fluorescence)−(Maximum control fluorescence−Minimum control fluorescence)] • Signal Fluorescence: refers to the change in fluorescence seen with addition of ligand • Control fluorescence: refers to the change in fluorescence seen with addition of buffer (negative control) • Calcium signals from ligand and control were normalized to the basal fluorescence of the cells prior to the stimulation.
(§5) A concentration analysis was performed and EC50 values were calculated by nonlinear regression using the formula: Y=Bottom+(Top-Bottom)/(1+10^((Log EC50-X)*Hill Slope)), X=log of dose or concentration, Y=Response (increasing as X increases), Top=maximum signal, Bottom=minimum signal.

[2] = target: T2, TAS2R8 (Homo sapiens, UniProt Q9NYW2); test: Calcium fluorescence functional assay, TAS2R8 cell line; conditions: 20 mM tastant; cell line expressing human TAS2R8 and mouse Gα15
T2 construct: expressed in transfected cells
T2 sequence (Q9NYW2 1-309): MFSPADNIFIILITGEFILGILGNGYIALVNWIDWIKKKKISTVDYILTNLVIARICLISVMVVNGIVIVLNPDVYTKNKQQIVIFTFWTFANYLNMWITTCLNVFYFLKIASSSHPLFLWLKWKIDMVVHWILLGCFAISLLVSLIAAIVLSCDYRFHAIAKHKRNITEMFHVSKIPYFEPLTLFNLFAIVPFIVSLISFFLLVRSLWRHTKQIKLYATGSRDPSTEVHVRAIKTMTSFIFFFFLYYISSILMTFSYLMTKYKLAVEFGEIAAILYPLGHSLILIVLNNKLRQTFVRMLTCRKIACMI
Method: as §1, §2, §3, §4, §5

[3] = target: T3, TAS2R43 (Homo sapiens, UniProt P59537); test: Calcium fluorescence functional assay, TAS2R43 cell line; conditions: 20 mM tastant; cell line expressing human TAS2R43 and mouse Gα15
T3 construct: expressed in transfected cells
T3 sequence (P59537 1-309): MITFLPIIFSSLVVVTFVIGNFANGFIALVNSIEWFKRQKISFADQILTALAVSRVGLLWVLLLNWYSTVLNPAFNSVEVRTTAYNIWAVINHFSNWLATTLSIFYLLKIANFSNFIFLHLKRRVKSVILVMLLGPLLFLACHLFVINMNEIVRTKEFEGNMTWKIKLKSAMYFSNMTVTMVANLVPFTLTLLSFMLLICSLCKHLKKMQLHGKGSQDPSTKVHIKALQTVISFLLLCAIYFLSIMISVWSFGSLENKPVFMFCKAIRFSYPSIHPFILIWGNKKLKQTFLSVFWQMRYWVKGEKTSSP
Method: as §1, §2, §3, §4, §5

[4] = target: T4, TAS2R60 (Homo sapiens, UniProt P59551); test: Calcium fluorescence functional assay, TAS2R60 cell line; conditions: for TAS2R60 bitter taste receptor activity (changes in intracellular calcium): 20 mM tastant, cell line expressing human TAS2R60 and mouse Gα15
T4 construct: expressed in transfected cells
T4 sequence (P59551 1-318): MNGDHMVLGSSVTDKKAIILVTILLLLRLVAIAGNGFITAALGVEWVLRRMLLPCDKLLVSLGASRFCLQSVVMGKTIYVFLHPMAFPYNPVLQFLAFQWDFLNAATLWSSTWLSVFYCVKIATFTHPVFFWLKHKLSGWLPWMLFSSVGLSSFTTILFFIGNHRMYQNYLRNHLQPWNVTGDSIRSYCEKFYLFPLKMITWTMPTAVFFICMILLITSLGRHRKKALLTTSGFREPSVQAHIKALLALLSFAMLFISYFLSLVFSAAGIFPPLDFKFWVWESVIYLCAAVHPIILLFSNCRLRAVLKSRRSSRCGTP
Method: as §1, §2, §3, §4, §5

[5] = target: T5, TAS2R47 (Homo sapiens, UniProt P59541); test: Calcium fluorescence functional assay, TAS2R47 cell line; conditions: 20 mM tastant; cell line expressing human TAS2R47 and mouse Gα15
T5 construct: expressed in transfected cells
T5 sequence (P59541 1-319): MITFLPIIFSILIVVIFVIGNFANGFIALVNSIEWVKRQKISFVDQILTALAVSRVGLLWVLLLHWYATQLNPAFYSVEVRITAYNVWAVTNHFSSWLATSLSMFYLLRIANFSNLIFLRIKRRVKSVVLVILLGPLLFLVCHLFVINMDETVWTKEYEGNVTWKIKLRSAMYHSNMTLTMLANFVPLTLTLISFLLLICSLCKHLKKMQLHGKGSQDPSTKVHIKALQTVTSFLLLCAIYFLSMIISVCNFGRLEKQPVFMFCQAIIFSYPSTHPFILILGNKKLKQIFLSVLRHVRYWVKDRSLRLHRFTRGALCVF
Method: as §1, §2, §3, §4, §5

[6] = target: T6, TAS2R5 (Homo sapiens, UniProt Q9NYW4); test: Calcium fluorescence functional assay, TAS2R5 cell line; conditions: 20 mM tastant; cell line expressing human TAS2R5 and mouse Gα15
T6 construct: expressed in transfected cells
T6 sequence (Q9NYW4 1-299): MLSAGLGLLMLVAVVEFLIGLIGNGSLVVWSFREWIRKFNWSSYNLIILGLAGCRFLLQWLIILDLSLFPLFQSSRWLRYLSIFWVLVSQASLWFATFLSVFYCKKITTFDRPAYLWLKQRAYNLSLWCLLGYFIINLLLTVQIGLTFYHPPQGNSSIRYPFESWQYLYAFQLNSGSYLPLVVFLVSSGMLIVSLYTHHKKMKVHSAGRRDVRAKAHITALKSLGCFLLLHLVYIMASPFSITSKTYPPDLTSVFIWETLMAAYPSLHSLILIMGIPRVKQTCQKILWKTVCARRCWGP
Method: as §1, §2, §3, §4, §5

SMILES	TAS2R38 bitter taste receptor activity (changes in intracellular calcium) [1]	TAS2R8 bitter taste receptor activity (changes in intracellular calcium) [2]	TAS2R43 bitter taste receptor activity (changes in intracellular calcium) [3]	TAS2R60 bitter taste receptor activity (changes in intracellular calcium) [4]	TAS2R47 bitter taste receptor activity (changes in intracellular calcium) [5]	TAS2R5 bitter taste receptor activity (changes in intracellular calcium) [6]	EC50 ([4]; increasing concentrations of KCl, TAS2R60 cell line (FIG. 3), read-out: EC50 value, activation of TAS2R60)
CC1=CC(=O)NS(=O)(=O)O1 [Acesulfame K]	did not induce	did not induce	did not induce	did not induce	did not induce	did not induce	–
[Cl-].[K+] [KCl, potassium chloride]	did not induce	did not induce	did not induce	induced	did not induce	did not induce	5 to 15 mM
CC(O)C(=O)[O-].[K+] (stereo not shown) [Potassium lactate, potassium lactate]	did not induce	did not induce	did not induce	induced	did not induce	did not induce	–
